Literature values, collected in patent publication US20030166007A1, “Chemical proteomics” (MDS Proteomics Inc., priority 2002, published 2003).

Legend:
[1] = target: T1, muscle glycogen phosphorylase b (Homo sapiens, UniProt P11217); conditions: cited from earlier work
T1 sequence (P11217 1-842): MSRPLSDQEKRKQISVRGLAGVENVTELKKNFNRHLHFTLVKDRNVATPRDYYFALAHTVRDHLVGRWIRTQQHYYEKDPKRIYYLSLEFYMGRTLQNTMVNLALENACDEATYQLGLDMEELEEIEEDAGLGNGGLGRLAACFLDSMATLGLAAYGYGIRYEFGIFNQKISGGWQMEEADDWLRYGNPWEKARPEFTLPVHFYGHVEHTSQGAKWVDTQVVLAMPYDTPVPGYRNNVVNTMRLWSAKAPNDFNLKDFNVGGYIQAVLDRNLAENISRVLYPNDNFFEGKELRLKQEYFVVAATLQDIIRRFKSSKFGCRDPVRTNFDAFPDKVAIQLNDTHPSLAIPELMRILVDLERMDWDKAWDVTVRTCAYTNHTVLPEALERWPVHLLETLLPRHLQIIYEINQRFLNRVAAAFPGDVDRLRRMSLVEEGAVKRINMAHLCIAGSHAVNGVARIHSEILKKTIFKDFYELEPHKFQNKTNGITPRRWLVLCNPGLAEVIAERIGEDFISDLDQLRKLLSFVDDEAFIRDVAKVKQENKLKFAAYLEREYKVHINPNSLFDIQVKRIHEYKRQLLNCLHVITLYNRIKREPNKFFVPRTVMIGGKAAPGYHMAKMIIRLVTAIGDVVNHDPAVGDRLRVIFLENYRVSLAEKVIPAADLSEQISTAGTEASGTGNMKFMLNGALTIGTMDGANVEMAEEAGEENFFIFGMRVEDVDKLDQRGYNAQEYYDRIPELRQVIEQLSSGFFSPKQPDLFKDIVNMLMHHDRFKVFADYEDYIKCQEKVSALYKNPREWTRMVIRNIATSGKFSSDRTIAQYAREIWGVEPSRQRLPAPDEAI

[2] = target: Amido phosphoribosyltransferase (Homo sapiens, UniProt Q06203); conditions: in vitro assays; cited from earlier work
Chain of Amido phosphoribosyltransferase (Q06203 12-517, species assumed): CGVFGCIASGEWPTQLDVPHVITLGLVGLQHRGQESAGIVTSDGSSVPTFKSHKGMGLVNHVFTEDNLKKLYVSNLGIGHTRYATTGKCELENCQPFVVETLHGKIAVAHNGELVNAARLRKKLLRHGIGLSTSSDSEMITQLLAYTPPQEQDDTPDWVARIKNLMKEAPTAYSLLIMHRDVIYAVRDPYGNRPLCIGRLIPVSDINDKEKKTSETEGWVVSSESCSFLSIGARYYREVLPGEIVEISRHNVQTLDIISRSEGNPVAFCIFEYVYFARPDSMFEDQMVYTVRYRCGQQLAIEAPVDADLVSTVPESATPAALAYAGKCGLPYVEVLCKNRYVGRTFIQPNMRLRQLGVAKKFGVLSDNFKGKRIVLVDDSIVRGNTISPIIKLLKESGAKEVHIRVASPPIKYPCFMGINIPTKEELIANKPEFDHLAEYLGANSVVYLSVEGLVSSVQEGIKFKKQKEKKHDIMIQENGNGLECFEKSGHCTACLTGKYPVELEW

CN(Cc1cnc2nc(N)nc(N)c2n1)c1ccc(C(=O)NC(CCC(=O)O)C(=O)O)cc1Cl (stereo not drawn) [3′-chloroMethotrexate]
inhibition of muscle glycogen phosphorylase b [1]: reversible inhibitors

CN(Cc1cnc2nc(N)nc(N)c2n1)c1c(Cl)cc(C(=O)N[C@@H](CCC(=O)O)C(=O)O)cc1Cl [3′,5′-dichloroMethotrexate]
inhibition of muscle glycogen phosphorylase b [1]: reversible inhibitors

CN(Cc1cnc2nc(N)nc(N)c2n1)c1ccc(C(=O)N[C@@H](CCC(=O)N[C@@H](CCC(=O)N[C@@H](CCC(=O)N[C@@H](CCC(=O)N[C@@H](CCC(=O)O)C(=O)O)C(=O)O)C(=O)O)C(=O)O)C(=O)O)cc1 [MTX-Glu5]
inhibition of amido-phosphoribosyltransferase [2]: inhibited
